# Source: patent publication US8829039B2, “Dihydroindolinone derivatives” (Shanghai Institute of Pharmaceutical Industry, priority 2008, dated 2014)
# Legend:
# [1] = test system: Human cervical cancer cell Hela; assay: Anti-tumor activity assay (MTT), Hela; assay type: cell-based; conditions: 48 hrs, samples freshly prepared with DMSO, read-out: Inhibition rate; for inhibition at 0.1 µg/mL: final concentration 0.1 μg/mL; for inhibition at 1 µg/mL: final concentration 1 μg/mL; for inhibition at 10 µg/mL: final concentration 10 μg/mL
# Protocol: (§1) These tests were carried out using conventional operations in the art. Specifically, the following materials and methods were employed:
# (§2) Human cervical cancer cell Hela, human liver cancer cell SMMC-7721, human lung cancer cell A549, poorly differentiated human gastric adenocarcinoma cell BGC-823, human breast cancer cell MDA-MB-231.
# (§3) To a bottle containing exponential growth phase cells in good condition, 0.25% trypsin solution was added. […] The cell suspension was seeded in a 96-well plate with an amount of 100 μL/well, incubated in a CO2 incubator for 24 hrs. 20 μL/well of tested compounds were added, followed by […], of 10% serum medium, and incubated for 48 hrs. 20 μL/well of MTT (5 mg/mL) was added to the 96-well plate, and the cells were incubated for 4 hrs in the incubator. After removing the supernatant, 150 μL/well of DMSO was added, and the cells were shaked in a horizontal swing bed for 10 minutes. Optical density value (OD value) of each well was measured with an ELISA analyzer at 490 nm, and cell inhibition rate was calculated. The corresponding solvent was used as negative control, and paclitaxel was used as positive control.
# [2] = test system: human liver cancer cell SMMC-7721; assay: Anti-tumor activity assay (MTT), SMMC-7721; assay type: cell-based; conditions: 48 hrs, samples stored at −20° C. for one week, read-out: Inhibition rate; for inhibition at 0.1 µg/mL: final concentration 0.1 μg/mL; for inhibition at 1 µg/mL: final concentration 1 μg/mL; for inhibition at 10 µg/mL: final concentration 10 μg/mL
# Protocol: as §1, §2, §3
# [3] = test system: poorly differentiated human gastric adenocarcinoma cell BGC-823; assay: Anti-tumor activity assay (MTT), BGC-823; assay type: cell-based; conditions: 48 hrs, samples stored at −20° C. for one week, read-out: Inhibition rate; for inhibition at 0.1 µg/mL: final concentration 0.1 μg/mL; for inhibition at 1 µg/mL: final concentration 1 μg/mL; for inhibition at 10 µg/mL: final concentration 10 μg/mL
# Protocol: as §1, §2, §3
# [4] = test system: human lung cancer cell A549; assay: Anti-tumor activity assay (MTT), A549; assay type: cell-based; conditions: 48 hrs, samples stored at −20° C. for one week, read-out: Inhibition rate; for inhibition at 0.1 µg/mL: final concentration 0.1 μg/mL; for inhibition at 1 µg/mL: final concentration 1 μg/mL; for inhibition at 10 µg/mL: final concentration 10 μg/mL
# Protocol: as §1, §2, §3
# [5] = test system: human breast cancer cell MDA-MB-231; assay: Anti-tumor activity assay (MTT), MDA-MB-231; assay type: cell-based; conditions: 48 hrs, samples stored at −20° C. for one week, read-out: Inhibition rate; for inhibition at 0.1 µg/mL: final concentration 0.1 μg/mL; for inhibition at 1 µg/mL: final concentration 1 μg/mL; for inhibition at 10 µg/mL: final concentration 10 μg/mL
# Protocol: as §1, §2, §3
# Lung cancer cell H460 = assay: Inhibition of tumor cell proliferation in vitro (MTT), H460; assay type: cell-based; conditions: Homo sapiens, NCI-H460, 48 hrs, read-out: Growth inhibition in vitro IC50
# Protocol: (§4) The activity assay of the compounds of the invention was carried out through common methods in the art. Commercially available Sunitinib was used as positive control, and lung cancer cell H460, colon cancer cell COLO205 and HT29, breast cancer cell A435 were used as exemplary tumor cells. The tested compounds were prepared by the methods disclosed in the Examples above.
# (§5) A certain amount (100 μL/well, 0.5−1×10^4 cells/mL) of lung cancer cell H460, colon cancer cell COLO205, and breast cancer cell A435, etc. in logarithmic growth phase were seeded in a 96-well plate, and incubated in an incubator for 24 hrs at 37° C. and 5% CO2. Afterwards, tested compounds and positive control (20 μL/wells) were added, followed by 80 µL of 10% serum medium, and then the tumor cells were incubated for further 48 hrs at 37° C. and 5% CO2. Afterwards, MTT (5 mg/mL) was added to the 96-well plates (20 μL/well), and the cells were incubated for another 4 h. After removing the supernatant, the cells were dissolved with DMSO (150 μL/well) and measured with a microplate reader at 490 nm.
# [6] = test system: colon cancer cell COLO205; assay: Inhibition of tumor cell proliferation in vitro (MTT), COLO205; assay type: cell-based; conditions: Homo sapiens, COLO 205, 48 hrs, read-out: Growth inhibition in vitro IC50
# Protocol: as §4, §5
# breast cancer cell A435 = assay: Inhibition of tumor cell proliferation in vitro (MTT), A435; assay type: cell-based; conditions: 48 hrs, read-out: Growth inhibition in vitro IC50
# Protocol: as §4, §5
# [7] = test system: human colon cancer HT-29 cells transplanted in nude mice; assay: Growth inhibition of human cancer HT-29 cells transplanted in nude mice; assay type: in vivo; conditions: for Body weight d0 / Body weight d21: nude mice with HT-29 tumor; for Body weight d0: d0, time of administration in separate cages; for Body weight d0 / TV d0: 30 mg/kg group; for Body weight d21 / T/C (%) / RTV / TV d21: 30 mg/kg intragastrically once a day for 21 days; for T/C (%): relative tumor proliferation rate TRTV/CRTV; for RTV: relative tumor volume TVt/TV0; for TV d0: tumor volume at d0, time of administration in separate cages; for TV d21: tumor volume at d21
# Protocol: A piece of tumor tissue in vigorous growth phase was obtained and cut into the size of about 1.5 mm^3, and subcutaneously inoculated into the right axillary region of nude mice aseptically. Diameters of transplanted tumors in nude mice were measured with a vernier caliper. After tumors grew to 100˜300 mm^3, the animals were randomly divided into 6 groups: model control group, Sunitinib group (30 mg/kg), Compound 1 group (30 mg/kg), Compound 2 group (30 mg/kg), Compound 3 group (30 mg/kg), Compound 4 group (30 mg/kg). […] Meanwhile, the negative control group was administered equivalent amount of sterile saline. The dynamic observation of antitumor effects of compounds 1-4 and Sunitinib was performed by measuring tumor diameters. […] The general behavior of nude mice was observed and recorded daily. (1) Tumor volume (TV), calculated by the equation: […] wherein a, b represent length and width, respectively. […] RTV=TVt/TV0 wherein TV0 represents the tumor volume at the beginning of administration in separated cages (ie. d0), TVt represents the tumor volume of each measurement. […] T/C %=(TRTV/CRTV)×100% TRTV: RTV of positive control group and each test compound group. CRTV: RTV of model control group.
# Fibroblast NIH/3T3 = assay: Inhibition of fibroblast NIH/3T3 proliferation (MTT); assay type: cell-based; conditions: Mus musculus, NIH3T3, 48 h, read-out: Inhibition of NIH/3T3 cell proliferation in vitro IC50
# Source text: The method commonly used at present for studying fibroblast proliferation associated diseases, i.e., for studying tissue and organ fibrosis, is measuring effects of test compounds on NIH/3T3 cell proliferation (Gao Z. M., Wan K., Effect of inhibition of NIH/3T3 cell proliferation by Cantharidin on prevention and treatment of organ and tissue fibrosis. Chinese Journal of Clinical Rehabilitation, 2004 (2). Tao Y. Y., Wang X. L., Effects of Salvianolic Acid-B on TGF-β1/ERK Signaling Transduction in NIH/3T3 Fibroblast. Journal of Capital Medical University, 2007 (2)).
# Fibroblast NIH/3T3 in logarithmic growth phase was seeded in a 96-well plate, by a certain number of cells (100 μL/well, 0.5−1×10^4 cells/mL). After incubating for 24 h, the screened samples (20 μl/well) were added (directly added after cell suspension was seeded in the plate), incubated for further 48 h at 37° C. and 5% CO2. Afterwards, MTT (5 mg/mL) was added to the 96-well plate (20 μL/well). The cells were incubated for another 4 h, and then dissolved with DMSO (150 μL/well) and measured with a microplate reader at 490 nm. The inhibition rate and IC50 were calculated.
IC50 (Lung cancer cell H460) [nM],IC50 [6] [nM],IC50 (breast cancer cell A435) [nM],SMILES,inhibition at 0.1 µg/mL [1] [%],inhibition at 1 µg/mL [1] [%],inhibition at 10 µg/mL [1] [%],inhibition at 0.1 µg/mL [2] [%],inhibition at 1 µg/mL [2] [%],inhibition at 0.1 µg/mL [3] [%],inhibition at 1 µg/mL [3] [%],inhibition at 0.1 µg/mL [4] [%],inhibition at 1 µg/mL [4] [%],inhibition at 0.1 µg/mL [5] [%],inhibition at 1 µg/mL [5] [%],inhibition at 10 µg/mL [5] [%],Body weight d0 [7] [g],Body weight d21 [7] [g],T/C (%) [7] [%],RTV [7],IC50 (Fibroblast NIH/3T3) [nM],further results
–,–,–,"CC(=O)O[C@H]1C(=O)[C@@]2(C)[C@H]([C@H](OC(=O)c3ccccc3)[C@]3(O)C[C@H](OC(=O)[C@H](O)[C@@H](NC(=O)c4ccccc4)c4ccccc4)C(C)=C1C3(C)C)[C@]1(OC(C)=O)CO[C@@H]1C[C@@H]2O [Paclitaxel, reference compound]",79.7,78.1,72.7,-6.71,-6.59,85.1,86.6,20.1,23.8,5.9,4.9,29.5,–,–,–,–,–,–
160,110,85,"Cc1[nH]c(/C=C2\C(=O)Nc3ccc(F)cc32)c(C)c1C(=O)NCCC1CCCN1C (stereo not drawn) [Compound 2, N-[(1-methylpyrrolidin-2-yl)ethyl]-5-(5-fluoro-2-oxo-1,2-dihydroindole-3-methylene)-2,4-dimethyl-1H-pyrrole-3-formamide]",-6.18,24.7,97.2,-6.59,-10.8,4.73,20.2,0.59,29.9,-0.2,16.5,71.6,19.7 ± 1.7,19.7 ± 1.6,17.8,1.6 ± 0.9,536,inhibition at 10 µg/mL [2]: 74.8%; inhibition at 10 µg/mL [3]: 76.2%; inhibition at 10 µg/mL [4]: 100%; TV d0 [7]: 193.5 ± 61.9 mm^3; TV d21 [7]: 342.9 ± 284.7 mm^3; melting point: 241 to 244 °C
230,170,82,"Cc1[nH]c(/C=C2\C(=O)Nc3ccc(F)cc32)c(C)c1C(=O)Nc1ccc(N(C)C)cc1 [Compound 7, N-[4-(dimethylamino)phenyl]-5-(5-fluoro-2-oxo-1,2-dihydroindole-3-methylene)-2,4-dimethyl-1H-pyrrole-3-formamide]",–,–,–,–,–,–,–,–,–,–,–,–,–,–,–,–,505,–
410,280,150,"CCN1CCCC1CNC(=O)CNC(=O)c1c(C)[nH]c(/C=C2\C(=O)Nc3ccc(F)cc32)c1C (stereo not drawn) [Compound 11, N-{2-[(1-ethylpyrrolidin-2-yl)methylamino]-2-oxoethyl}-5-(5-fluoro-2-oxo-1,2-dihydroindole-3-methylene)-2,4-dimethyl-1H-pyrrole-3-formamide]",–,–,–,–,–,–,–,–,–,–,–,–,–,–,–,–,–,–
330,220,87,"Cc1[nH]c(/C=C2\C(=O)Nc3ccc(F)cc32)c(C)c1C(=O)NC1CCN(Cc2ccccc2)C1 (stereo not drawn) [Compound 6, N-(1-benzylpyrrolidin-3-yl)-5-(5-fluoro-2-oxo-1,2-dihydroindole-3-methylene)-2,4-dimethyl-1H-pyrrole-3-formamide]",–,–,–,–,–,–,–,–,–,–,–,–,–,–,–,–,698,–
440,310,160,"CCN1CCCC1CNC(=O)C(C)NC(=O)c1c(C)[nH]c(/C=C2\C(=O)Nc3ccc(F)cc32)c1C (stereo not drawn) [Compound 12, N-{2-[(1-ethylpyrrolidin-2-yl)methylamino]-1-oxoprop-2-yl}-5-(5-fluoro-2-oxo-1,2-dihydroindole-3-methylene)-2,4-dimethyl-1H-pyrrole-3-formamide]",–,–,–,–,–,–,–,–,–,–,–,–,–,–,–,–,–,–
680,550,630,"CCN(CC)CCNC(=O)c1c(C)[nH]c(/C=C2\C(=O)Nc3ccc(F)cc32)c1C [Sunitinib, reference compound]",-0.21,24.7,99.2,-38.8,-12.3,9.53,19.2,7.29,29.1,6.4,28.9,90.2,20.4 ± 2.0,21.0 ± 1.9,51.5,4.6 ± 1.5,–,inhibition at 10 µg/mL [2]: 72.5%; inhibition at 10 µg/mL [3]: 88.8%; inhibition at 10 µg/mL [4]: 98.7%; TV d0 [7]: 198.2 ± 62.4 mm^3; TV d21 [7]: 911.8 ± 481.7 mm^3
170,160,91,"Cc1[nH]c(/C=C2\C(=O)Nc3ccc(F)cc32)c(C)c1C(=O)NCC(=O)Nc1ccc(N(C)C)cc1 [Compound 8, N-{2-[4-(dimethylamino)anilino]-2-oxoethyl}-5-(5-fluoro-2-oxo-1,2-dihydroindole-3-methylene)-2,4-dimethyl-1H-pyrrole-3-formamide]",–,–,–,–,–,–,–,–,–,–,–,–,–,–,–,–,884,–
580,400,220,Cc1[nH]c(/C=C2\C(=O)Nc3ccc(F)cc32)c(C)c1C(=O)NCC1CCNCC1 [Compound 4],–,–,–,–,–,–,–,–,–,–,–,–,20.0 ± 2.2,20.3 ± 1.5,41.0,3.6 ± 3.2,1180,TV d0 [7]: 195.0 ± 67.4 mm^3; TV d21 [7]: 791.7 ± 815.0 mm^3
